Publication PMC5114336, “Enhanced anti-tumour activity of the combination of the novel MEK inhibitor WX-554 and the novel PI3K inhibitor WX-037” (Cancer Chemotherapy and Pharmacology, 2016)
Where “and” joins values, the source holds several entries; their conditions need not be identical. Identical values can stand only once. Entries after “also recorded” stand apart in the source; their conditions may differ. Like-named read-outs stand apart in the source and are kept apart here.

Experiments:
HT29 cells [1] = details: read-out: GI50 (potency), cited from earlier work
HCT116 cells [2] = details: read-out: GI50 (potency), cited from earlier work
HCT116 cells [3] = assay: Sulforhodamine B (SRB) growth inhibition assay with median effect analysis, HCT116; assay type: cell-based, human; details: HCT116, single agent
Experimental: (§1) Growth was then measured using the Sulforhodamine B (SRB) method and analysed as described previously. The GI50 concentration was calculated based on a standard point to point curve with 1000 segments using GraphPad Prism software (California, USA). The data were analysed by median effect analysis using CalcuSyn software (Biosoft, Cambridgeshire, UK), which calculates the combination index of multiple drugs by an algebraic estimation algorithm.

[4] = Pharmacokinetic study, plasma and tumour concentrations, HCT116 xenograft-bearing mice; assay type: in vivo
Experimental: (§2) Animal studies were all carried out using female athymic CD1 nude mice (Charles River, Kent, UK), implanted with HCT116 or HT29 xenografts (1 × 10^7 cells in 50 µl media injected subcutaneously into the right flank), maintained and handled in isolators under specific pathogen-free conditions.
(§3) Mice bearing HCT116 or HT29 human tumour xenografts were treated with 1 or 5 mg/kg WX-554, or 20 or 100 mg/kg WX-037, alone or in combination, and were bled by cardiac puncture under terminal anaesthesia at 6 or 24 h post-treatment (3 mice/time point). Blood was collected into heparinized tubes, and plasma was separated and stored at −20 °C until analysed. Tumours were removed, snap frozen in liquid nitrogen and stored at −80 °C prior to PK analyses. Samples were extracted with solid phase extraction (SPE) and analysed with high-performance liquid chromatography (HPLC) coupled with tandem mass spectrometry (MS/MS) by Wilex (Munich, Germany). The quantification limit for WX-554 was 1 ng/mL and within and between day variation was <15%. WinNonlin Software Version 4.0.1 (Pharsight Corporation, Peypin, France) was used for PK/PD modelling and non-compartmental analysis. Paired t tests were used to compare the different treatment groups, and differences with a p value ≤0.05 were considered statistically significant.

[5] = Tolerability (body weight) in the HCT116 xenograft efficacy study; assay type: in vivo; details: HCT116 xenograft mice, 2 mg/kg WX-554 and/or 50 mg/kg WX-037 p.o. once daily for 14 days
Experimental: (§4) Mice bearing HCT116 human tumour xenografts were randomized into treatment groups and then treated by oral gavage with either the vehicle (10 ml/kg), 2 mg/kg WX-554, 50 mg/kg WX-037 or the combination of 2 mg/kg WX-554 and 50 mg/kg WX-037 once daily for 14 days. Tumour volume was monitored by calliper measurement using the equation a ^2 × b/2, where a is the smallest measurement and b the largest. Data are presented as median relative tumour volumes (RTV), where the tumour volume in each mouse on the initial day of treatment (day 0) is assigned an RTV value of 1. The time to RTV4 for each individual tumour was calculated based on a standard point to point curve with 1000 segments using GraphPad Prism software (CA, USA). Mann–Whitney U tests were used to compare the different groups, i.e., the control versus each treatment group, the single agents versus each other and each single agent versus their combination. Differences with a p value ≤0.05 were considered statistically significant.
Based on the results of the PK study, the efficacy of 50 mg/kg of the PI3K inhibitor WX-037 and 2 mg/kg of the MEK inhibitor WX-554 given orally, as single agents and in combination, was assessed in HCT116 human tumour xenograft-bearing mice (Fig. 5). […] In this study, mice were treated daily for 14 days and tumour volumes were measured three times a week.

[6] = parameters: method as in earlier work; details: dose escalation study in healthy volunteers; cited from earlier work
HCT116 cells [7] = assay: Clonogenic cytotoxicity assay, HCT116
Text: (§6) HCT116 and HT29 human colorectal cancer cells were obtained from the ATCC (American Type Culture Collection).
(§7) After growth for 10–14 days, colonies were fixed in methanol–acetic acid 3:1 (v/v) and stained with crystal violet (0.4% w/v). Colonies consisting of more than 50 cells were counted on an automated colony counter (Oxford Optronix, Oxford, UK). Two-tailed paired t tests were used to compare the different groups. Differences with a p < 0.05 were considered statistically significant.

[8] = test system: HCT116 human tumour xenografts; assay: Anti-tumour activity in HCT116 xenograft-bearing mice; assay type: in vivo; details: 2 mg/kg WX-554 and/or 50 mg/kg WX-037 p.o. once daily for 14 days
Experimental: as §2, §4

MEK1 = details: stated in Introduction, method and reference not given; read-out: half maximal inhibitory concentration (IC50), MEK1; cited from earlier work
[9] = test system: phosphorylation of ERK1/2, AKT, S6 and 4EBP1 in HCT116 cells; assay: Western blotting of PI3K/AKT and MAPK signal transduction, HCT116; assay type: cell-based, human; details: HCT116, 24 h, 1x or 10x GI50, Western blot
Experimental: (§5) Western blots were prepared, probed with phospho-4EBP1 (Thr37/46) (#2855), phospho-p44/42 MAPK (Thr202/Tyr204) (#4370), phospho-AKT (Ser473) (#4060) or phospho-S6 ribosomal protein (Ser235/236) (#4858) monoclonal antibodies obtained from Cell Signalling Technology (New England BioLabs (UK) Ltd, Hertfordshire, UK) and developed as described previously. Blots were then stripped (100 mM 2-mercaptoethanol, 2% (w/v) SDS and 62.5 mM Tris pH6.8 at 55 °C for 30 min) and re-probed with the respective total monoclonal antibody (4EBP1 (53H11) (#9644), p44/42 MAPK (ERK1/2) (#4695), AKT (pan) (C67E7) (#4691) or S6 ribosomal protein (5g10) (#2217)) obtained from Cell Signalling Technology (New England BioLabs (UK) Ltd, Hertfordshire, UK) and developed as described above.

HT29 cells [10] = assay: Clonogenic cytotoxicity assay, HT29
Text: as §6, §7

[11] = Pharmacokinetic study, plasma and tumour concentrations, HT29 xenograft-bearing mice; assay type: in vivo
Experimental: as §2, §3

MEK2 = details: stated in Introduction, method and reference not given; read-out: half maximal inhibitory concentration (IC50), MEK2; cited from earlier work
HT29 cells [12] = assay: Sulforhodamine B (SRB) growth inhibition assay with median effect analysis, HT29; assay type: cell-based, human
Experimental: as §1

[13] = parameters: method as in PMID 23587417, PMID 24434059; details: recent Phase I study; cited from earlier work
[14] = test system: phosphorylation of ERK1/2, AKT, S6 and 4EBP1 in HT29 cells; assay: Western blotting of PI3K/AKT and MAPK signal transduction, HT29; assay type: cell-based, human; details: HT29, 24 h, 1x or 10x GI50, Western blot
Experimental: as §5

[15] = 1 mg/kg WX-554 + 20 mg/kg WX-037, single p.o. dose
[16] = 1 mg/kg WX-554 + 100 mg/kg WX-037, single p.o. dose
[17] = 1 mg/kg WX-554 alone, single p.o. dose
[18] = 5 mg/kg WX-554 + 20 mg/kg WX-037, single p.o. dose
[19] = 5 mg/kg WX-554 + 100 mg/kg WX-037, single p.o. dose
[20] = 5 mg/kg WX-554 alone, single p.o. dose

What does the source list for `O=C(NOC[C@H](O)CO)c1ccc(F)c(F)c1Nc1ccc(I)cc1F` [PD 0325901]?
GI50 (HT29 cells [1]; HT29, using the same assay): 6.5 nM; GI50 (HCT116 cells [2]; HCT116, using the same assay): 21 nM

What does the source list for `NCC1CN(C(=O)c2c(Nc3ccc(I)cc3F)sc3ncccc23)C1` [WX-554]?
GI50 (HCT116 cells [3]; 72-h exposure, SRB, read-out: GI50 (half maximal growth inhibitory concentration)): 38 nM; in vitro GI50 value (HCT116 cells [3]; determined in Supplementary Figure 1): 0.018 µg/mL; GI50 (HT29 cells [1]; HT29, unpublished Wilex studies): 7.2 nM; WX-554 Concentration ± SD, Plasma, 6 hours [4, 15]: 17 ± 9 ng/mL; WX-554 Concentration ± SD, Plasma, 24 hours [4, 15]: 6 ± 6 ng/mL; WX-554 Concentration ± SD, Tumour, 6 hours [4, 15]: 184 ± 62 ng/mL; WX-554 Concentration ± SD, Tumour, 24 hours [4, 15]: 141 ± 58 ng/mL; WX-554 Concentration ± SD, Plasma, 6 hours [4, 16]: 20 ± 10 ng/mL; WX-554 Concentration ± SD, Plasma, 24 hours [4, 16]: 10 ± 7 ng/mL; WX-554 Concentration ± SD, Tumour, 6 hours [4, 16]: 319 ± 139 ng/mL; WX-554 Concentration ± SD, Tumour, 24 hours [4, 16]: 464 ± 263 ng/mL; WX-554 Concentration ± SD, Plasma, 6 hours [4, 17]: 19 ± 5 ng/mL; WX-554 Concentration ± SD, Plasma, 24 hours [4, 17]: 2 ± 1 ng/mL; WX-554 Concentration ± SD, Tumour, 6 hours [4, 17]: 478 ± 97 ng/mL; WX-554 Concentration ± SD, Tumour, 24 hours [4, 17]: 309 ± 30 ng/mL; WX-554 Concentration ± SD, Plasma, 6 hours [4, 18]: 74 ± 27 ng/mL; WX-554 Concentration ± SD, Plasma, 24 hours [4, 18]: 28 ± 7 ng/mL; WX-554 Concentration ± SD, Tumour, 6 hours [4, 18]: 673 ± 453 ng/mL; WX-554 Concentration ± SD, Tumour, 24 hours [4, 18]: 1240 ± 282 ng/mL; WX-554 Concentration ± SD, Plasma, 6 hours [4, 19]: 98 ± 18 ng/mL; WX-554 Concentration ± SD, Plasma, 24 hours [4, 19]: 68 ± 19 ng/mL; WX-554 Concentration ± SD, Tumour, 6 hours [4, 19]: 804 ± 353 ng/mL; WX-554 Concentration ± SD, Tumour, 24 hours [4, 19]: 1583 ± 369 ng/mL; WX-554 Concentration ± SD, Plasma, 6 hours [4, 20]: 130 ± 37 ng/mL; WX-554 Concentration ± SD, Plasma, 24 hours [4, 20]: 11 ± 2 ng/mL; WX-554 Concentration ± SD, Tumour, 6 hours [4, 20]: 1724 ± 442 ng/mL; WX-554 Concentration ± SD, Tumour, 24 hours [4, 20]: 360 ± 223 ng/mL; tolerability / toxicity [5]: non-toxic; safety and tolerability [6]: safe and tolerable; LC50 fold higher than the corresponding GI50 (HCT116 cells [7]; HCT116): approximately 16 fold; cell kill (cytotoxicity, cell death) (HCT116 cells [7]; HCT116, single agent 10 µM, 72 h, clonogenic assay): 67%; CC50 (HCT116 cells [7]; read-out: mean lethal concentration (LC50), HCT116, 72-h exposure, clonogenic assay): 600 nM; tumour growth compared to vehicle-treated control tumours [8]: caused tumour growth delay; also recorded: induced tumour growth delay; IC50 (MEK1): 4.7 nM; reduction of ERK1/2 phosphorylation [9]: reduced ERK1/2 phosphorylation at 1 and 10 times the GI50 concentration; LC50 fold higher than the corresponding GI50 (HT29 cells [10]; HT29): ~372 fold; cell kill (cytotoxicity, cell death) (HT29 cells [10]; HT29, single agent 10 µM, 72 h, clonogenic assay): 75%; CC50 (HT29 cells [10]; read-out: mean lethal concentration (LC50), HT29, 72-h exposure, clonogenic assay): 1600 nM; GI50 (HCT116 cells [2]; HCT116, unpublished Wilex studies): 29 nM; WX-554 Concentration ± SD, Plasma, 6 hours [11, 15]: 101 ± 39 ng/mL; WX-554 Concentration ± SD, Plasma, 24 hours [11, 15]: 5 ± 3 ng/mL; WX-554 Concentration ± SD, Tumour, 6 hours [11, 15]: 1180 ± 597 ng/mL; WX-554 Concentration ± SD, Tumour, 24 hours [11, 15]: 447 ± 80 ng/mL; WX-554 Concentration ± SD, Plasma, 6 hours [11, 16]: 19 ± 14 ng/mL; WX-554 Concentration ± SD, Plasma, 24 hours [11, 16]: 13 ± 7 ng/mL; WX-554 Concentration ± SD, Tumour, 6 hours [11, 16]: 159 ± 102 ng/mL; WX-554 Concentration ± SD, Tumour, 24 hours [11, 16]: 407 ± 66 ng/mL; WX-554 Concentration ± SD, Plasma, 6 hours [11, 17]: 21 ± 1 ng/mL; WX-554 Concentration ± SD, Plasma, 24 hours [11, 17]: 3 ± 1 ng/mL; WX-554 Concentration ± SD, Tumour, 6 hours [11, 17]: 510 ± 40 ng/mL; WX-554 Concentration ± SD, Tumour, 24 hours [11, 17]: 419 ± 134 ng/mL; WX-554 Concentration ± SD, Plasma, 6 hours [11, 18]: 81 ± 26 ng/mL; WX-554 Concentration ± SD, Plasma, 24 hours [11, 18]: 52 ± 58 ng/mL; WX-554 Concentration ± SD, Tumour, 6 hours [11, 18]: 1143 ± 416 ng/mL; WX-554 Concentration ± SD, Tumour, 24 hours [11, 18]: 2493 ± 979 ng/mL; WX-554 Concentration ± SD, Plasma, 6 hours [11, 19]: 47 ± 33 ng/mL; WX-554 Concentration ± SD, Plasma, 24 hours [11, 19]: 49 ± 10 ng/mL; WX-554 Concentration ± SD, Tumour, 6 hours [11, 19]: 446 ± 239 ng/mL; WX-554 Concentration ± SD, Tumour, 24 hours [11, 19]: 2423 ± 584 ng/mL; WX-554 Concentration ± SD, Plasma, 6 hours [11, 20]: 118 ± 25 ng/mL; WX-554 Concentration ± SD, Plasma, 24 hours [11, 20]: 13 ± 3 ng/mL; WX-554 Concentration ± SD, Tumour, 6 hours [11, 20]: 2748 ± 378 ng/mL; WX-554 Concentration ± SD, Tumour, 24 hours [11, 20]: 1916 ± 207 ng/mL; IC50 (MEK2): 11 nM; fold difference in sensitivity, HT29 more sensitive than HCT116 (HT29 cells [12]; GI50 HCT116 versus GI50 HT29): 9 fold; GI50 (HT29 cells [12]; HT29, single agent, 72-h exposure, SRB, read-out: GI50 (half maximal growth inhibitory concentration)): 4.3 nM and 4 nM; in vitro GI50 value (HT29 cells [12]; HT29, single agent, determined in Supplementary Figure 1): 0.002 µg/mL; bioavailability [13]: very good bioavailability; reduction of ERK1/2 phosphorylation [14]: at 10 times the GI50 concentration in the HT29 cell line

What does the source list for `CS(=O)(=O)N1CCN(Cc2cc3nc(-c4cccc5[nH]ncc45)nc(N4CCOCC4)c3s2)CC1` [pictilisib, 2-(1H-Indazol-4-yl)-6-(4-methanesulfonyl-piperazin-1-ylmethyl)-4-morpholin-4-yl-thieno[3,2-d]pyrimidine]?
GI50 (HT29 cells [1]; HT29, using the same assay): 157 nM; GI50 (HCT116 cells [2]; HCT116, using the same assay): 1080 nM
